Entries after “also recorded” stand apart in the source; their conditions may differ. Like-named read-outs stand apart in the source and are kept apart here.
Key:
[1] = tested on: PC9-PIK3CAm cells; experiment: Clonogenic assay; assay type: cell-based, human; settings: osimertinib 160 nM, 8 days, crystal violet
Description: Cells were stained with Crystal violet at the end of the treatment (8 days) and cell density (% surface) quantified by ImageJ.

[2] = tested on: P-EGFR, MAPK signalling, P-AKT and P-S6 in PC9-PIK3CAm cells; experiment: Intracellular changes by WB analysis; assay type: cell-based, human; settings: 4 h
[3] = tested on: HCC-827 PTEN^KO cells; assay type: cell-based, human
[4] = tested on: PC9 PTEN^KO cells; experiment: Clonogenic assay (long term); assay type: cell-based, human; settings: 160 nM osimertinib
[5] = tested on: p-S6 in PC9 PTEN^KO cells; experiment: Intracellular changes by WB analysis; assay type: cell-based, human; settings: treated for 3 weeks with osimertinib 160 nM
[6] = tested on: PC9 PTEN^KO xenograft; experiment: Xenograft model, tumour volume; assay type: in vivo, NOD/SCID mice
Description: (§1) e) PC9 PTEN-KO and HCC827 PTEN-KO cell lines were cultured in RPMI1640 supplemented with 10% FCS and cultured in a humidified incubator with 5% CO2 at 37° C. PC9 PTEN-KO and HCC827 PTEN-KO xenografts were established by subcutaneous implantation of 5×10^6, cells per animal, in 100 μL of cell suspension including 50% matrigel, into the flank of female NOD/SCID and nude mice respectively. All mice were older than 6 weeks at the time of cell implant. Tumour growth was monitored twice weekly by bilateral calliper measurements and tumour volume calculated using the formula TV (mm3)=[length (mm)×width (mm)2]×0.5, where the length and the width are the longest and the shortest diameters of the tumour.

[7] = tested on: PIK3CA H1047R and PIK3CA E453K-positive cells; experiment: Osimertinib selection of CRISPR knock-in cell pools, DNA sequencing; assay type: cell-based, human; settings: osimertinib (100 nM) for 3 weeks; NGS and SANGER sequencing
Description: As the efficiency of knock-ins using this technology is usually low, only a small proportion of cells was expected to be genetically modified, thus mimicking the emergence of a co-occurring resistance mutation in a tumour.

[8] = tested on: PC9 PIK3CA^H1047R cells; settings: osimertinib alone
[9] = tested on: HCC-827 PTEN^KO xenograft; settings: mouse
Description: as §1

## C=CC(=O)Nc1cc(Nc2nccc(-c3cn(C)c4ccccc34)n2)c(OC)cc1N(C)CCN(C)C [osimertinib, N-(2-{2-dimethylaminoethyl-methylamino}-4-methoxy-5-{[4-(1-methylindol-3-yl)pyrimidin-2-yl]amino}phenyl)prop-2-enamide]
[1]
  clonogenic growth (cell density): resistance to osimertinib compared to parental PC9: developed resistance
[2]; 160 nM osimertinib alone, PC9-PIK3CAm cells
  levels of P-AKT and P-S6 (western blot): refractory
[2]; 160 nM osimertinib, parental and PC9-PIK3CAm cells
  P-EGFR levels and MAPK signalling (western blot): downregulation of P-EGFR levels and MAPK signalling
[3]
  clonogenic growth: resistance to osimertinib compared to parental cells: resulted in osimertinib resistance; also recorded: develop resistance
[3]; 160 nM osimertinib, after 3 weeks
  cell density (% surface) higher than parental HCC-827: 20 X
[4]
  cell density higher than parental PC9 cells: 2 ×
[4]; 3 or 5 weeks
  clonogenic growth: resistance to osimertinib compared to parental cells: milder resistance phenotype; also recorded: develop resistance
[5]
  p-S6 levels (western blot): persistent p-S6 levels
[6]
  degree of resistance to Osimertinib in vivo: at best very modest
[7]
  outgrowth of PIK3CA-mutant cells under osimertinib selection: conferred resistance
[8]
  osimertinib-induced apoptotic response (caspase 3/7 activation) compared to parental PC9: diminished apoptotic response
[8]; listed as Osimertinib
  osimertinib-induced apoptotic response (caspase 3/7 activation) compared to parental PC9: Diminished apoptotic response
[9]
  degree of resistance to Osimertinib in vivo: at best very modest
